{"source": "patent US5385927A", "about": "“Hydroxy-3-[1-(1H-imidazol-4-yl)alkyl]-benzenecarboximidamides and their use in treating glaucoma” (priority 1993, dated 1995)", "key": {"[1]": {"tested_on": "presynaptic α2-adrenergic receptor (guinea-pig ileum)", "assay": "Inhibition of the contraction of the isolated guinea-pig ileum induced by electrical stimulation (presynaptic α2-adrenergic agonist properties)", "conditions": "for IC50: concentration that reduces by 50% the intensity of the muscle contraction, electrical stimulation", "from_the_text": "Stimulation of the guinea-pig ileum.\nLongitudinal muscle fragments attached to an isometric force indicator are immersed in Tyrode's solution and are stretched with a force of 1 g (G. M. DREW, Brit. J. Pharmacol. 64, (1978), 293-300; M. ANDREJAK et al., Naunyn-Schmiedeberg's Arch. Pharmacol. 314, (1980), 83-87).\nElectrical stimulation of the parasympathetic nerves associated with the ileum fragments causes a contraction of the muscle. This contraction is reduced in the presence of a presynaptic α2 -agonist and the magnitude by which the contraction is reduced depends on the concentration of the agonist used. This effect is antagonized by the simultaneous presence of an α2 -antagonist such as α-yohimbine.\nThe compounds to be studied have been tested at increasing concentrations ranging from 10^-10 to 10^-3 mole/l. The concentration (IC50 in mole/l) that reduces by 50% the intensity of the muscle contraction is determined.\nTable I gives the IC50 concentrations (in mole/l) obtained for the compounds of the invention (except for compound 6, for which compound the IC30 concentration is given)."}, "[2]": {"tested_on": "intraocular pressure of the treated eye", "assay": "Intraocular pressure variation in awake normotensive rabbits, treated eye", "format": "in vivo, rabbit (New Zealand White)", "description": "the 1st column indicates the compound tested,\nthe 2nd column indicates the concentration of the compound, in percent (in weight per volume),\nthe 3rd, 4th, 5th, 6th and 7th columns indicate the variation in intraocular pressure (ΔP) expressed in percent, with respect to an animal treated with a collyrium containing no compound to be tested, measured after 30 minutes, 1, 2, 3 or 6 hours respectively."}, "[3]": {"tested_on": "mucous membrane of the treated eye (conjunctivae)", "assay": "Effect on the mucous membrane of the treated eye (hypohemia)", "format": "in vivo, rabbit (New Zealand White)", "from_the_text": "Hypohemia manifests itself by insufficient blood irrigation of the conjunctiva, which can result in irreversible local ischemias."}, "male NMRI mice": {"tested_on": "male NMRI mice", "assay": "Toxicity by means of Irwin's test, intraperitoneal", "format": "in vivo, mouse (NMRI)", "conditions": "death of two out of three animals within 24 hours", "description": "The toxicity of the compounds according to the present invention has been determined in male NMRI mice by means of Irwin's test (S. IRWIN, Psychopharmacologia, 13, (1968), 222-257). Progressive doses of the compound to be tested are administered intraperitoneally to groups of three mice until the lethal dose is reached (dose which causes the death of two out of three animals within 24 hours).\nIt can be seen from this Table that the compounds of the invention have a very low toxicity."}, "[4]": {"tested_on": "intraocular pressure of the contralateral eye", "description": "All the doses tested are administered to three rabbits (weight 2-2.5 kg) of both sexes according to a \"cross-over\" experimental protocol in which each animal is also used in the control group. […] The intraocular pressure is measured tonometrically with a BIORAD pneumatonograph (DIGILAB MODULAR ONE) after local anesthesia using 2 drops of a 0.4% (in weight per volume) solution of oxybuprocaine hydrochloride."}, "[5]": {"conditions": "background of the patent, cited from earlier work"}, "pupil diameter": {"tested_on": "pupil diameter", "assay": "Effect on the pupil diameter of the treated eye and of the contralateral eye", "conditions": "clonidine: ipsilateral eye at 0.1 and 0.5%; compounds of the invention: treated or contralateral eye at doses of Table II", "experimental": "The pupil diameters are measured visually at the point of maximal vertical diameter, using a millimetric metal standard."}, "[6]": {"conditions": "ocular or topical use unless stated"}}, "note": "Like-named read-outs stand apart in the source and are kept apart here."}
{"smiles": "CC(c1c[nH]cn1)c1cccc(C(=N)N)c1O", "note": "(single isomer, unassigned; (-)) [E, (-)-2-hydroxy-3-[1-(1H-imidazol-4-yl)ethyl]-benzenecarboximidamide]", "values": [{"measurement": "IC50", "setting": "[1]", "result": 200, "unit": "nM"}, {"measurement": "ΔP [30 min], variation in intraocular pressure", "setting": "[2]; 0.5% w/v", "result": -11.6, "unit": "%"}, {"measurement": "ΔP [1 h], variation in intraocular pressure", "setting": "[2]; 0.5% w/v", "result": -12.6, "unit": "%"}, {"measurement": "ΔP [6 h], variation in intraocular pressure", "setting": "[2]; 0.5% w/v", "result": -6.6, "unit": "%"}, {"measurement": "Hypohemia of the treated eye", "setting": "[3]; 0.5%", "result": "do not induce hypohemia"}, {"measurement": "Lethal dose", "setting": "male NMRI mice", "result": 248, "unit": "mg/kg"}]}
{"smiles": "N=C(NO)c1cccc(Cc2c[nH]cn2)c1O", "note": "[C, N,2-dihydroxy-3-(1H-imidazol-4-ylmethyl)-benzenecarboximidamide]", "values": [{"measurement": "IC50", "setting": "[1]", "result": 140, "unit": "nM"}, {"measurement": "Lethal dose", "setting": "male NMRI mice", "result": 232, "unit": "mg/kg"}]}
{"smiles": "CC(c1c[nH]cn1)c1cccc(C(=N)N)c1O", "note": "(single isomer, unassigned; (+)) [D, (+)-2-hydroxy-3-[1-(1H-imidazol-4-yl)ethyl]-benzenecarboximidamide]", "values": [{"measurement": "IC50", "setting": "[1]", "result": 3.9, "unit": "nM"}, {"measurement": "ΔP [30 min], variation in intraocular pressure", "setting": "[2]; 0.01% w/v", "result": -14.1, "unit": "%"}, {"measurement": "ΔP [2 h], variation in intraocular pressure", "setting": "[2]; 0.01% w/v", "result": -17.7, "unit": "%"}, {"measurement": "ΔP [6 h], variation in intraocular pressure", "setting": "[2]; 0.01% w/v", "result": -15.1, "unit": "%"}, {"measurement": "Lethal dose", "setting": "male NMRI mice", "result": 25, "unit": "mg/kg"}]}
{"smiles": "N=C(NN)c1cccc(Cc2c[nH]cn2)c1O", "note": "[G, 2-hydroxy-3-(1H-imidazol-4-ylmethyl)-benzenecarboximidic acid hydrazide]", "values": [{"measurement": "IC30, inhibition of the contraction of the guinea-pig ileum", "setting": "[1]; IC30 printed in the IC50 column", "result": 2500, "unit": "nM"}, {"measurement": "Lethal dose", "setting": "male NMRI mice", "result": 416, "unit": "mg/kg"}]}
{"smiles": "N=C(N)c1cccc(Cc2c[nH]cn2)c1O", "note": "[A, 2-hydroxy-3-(1H-imidazol-4-ylmethyl)-benzenecarboximidamide]", "values": [{"measurement": "IC50", "setting": "[1]", "result": 62, "unit": "nM"}, {"measurement": "ΔP [30 min], variation in intraocular pressure", "setting": "[2]; 0.05% w/v", "result": -5.9, "unit": "%"}, {"measurement": "ΔP [2 h], variation in intraocular pressure", "setting": "[2]; 0.05% w/v", "result": -18.6, "unit": "%"}, {"measurement": "ΔP [6 h], variation in intraocular pressure", "setting": "[2]; 0.05% w/v", "result": -1.1, "unit": "%"}, {"measurement": "ΔP [30 min], variation in intraocular pressure", "setting": "[2]; 0.1% w/v", "result": -9.2, "unit": "%"}, {"measurement": "ΔP [2 h], variation in intraocular pressure", "setting": "[2]; 0.1% w/v", "result": -21.2, "unit": "%"}, {"measurement": "ΔP [6 h], variation in intraocular pressure", "setting": "[2]; 0.1% w/v", "result": -16.1, "unit": "%"}, {"measurement": "Hypohemia of the treated eye", "setting": "[3]; 0.1%", "result": "do not induce hypohemia"}, {"measurement": "Lethal dose", "setting": "male NMRI mice", "result": "> 216", "unit": "mg/kg"}]}
{"smiles": "CNC(=N)c1cccc(Cc2c[nH]cn2)c1O", "note": "[B, 2-hydroxy-3-(1H-imidazol-4-ylmethyl)-N-methyl-benzenecarboximidamide]", "values": [{"measurement": "IC50", "setting": "[1]", "result": 2500, "unit": "nM"}, {"measurement": "ΔP [30 min], variation in intraocular pressure", "setting": "[2]; 0.5% w/v", "result": -5.5, "unit": "%"}, {"measurement": "ΔP [1 h], variation in intraocular pressure", "setting": "[2]; 0.5% w/v", "result": -10.8, "unit": "%"}, {"measurement": "ΔP [2 h], variation in intraocular pressure", "setting": "[2]; 0.5% w/v", "result": -13.3, "unit": "%"}, {"measurement": "ΔP [3 h], variation in intraocular pressure", "setting": "[2]; 0.5% w/v", "result": -12.8, "unit": "%"}, {"measurement": "ΔP [6 h], variation in intraocular pressure", "setting": "[2]; 0.5% w/v", "result": -7.6, "unit": "%"}, {"measurement": "Lethal dose", "setting": "male NMRI mice", "result": 230, "unit": "mg/kg"}]}
{"smiles": "CC(C)NC(=N)c1cccc(Cc2c[nH]cn2)c1O", "note": "[F, 2-hydroxy-3-(1H-imidazol-4-ylmethyl)-N-(1-methylethyl)-benzenecarboximidamide]", "values": [{"measurement": "IC50", "setting": "[1]", "result": 6400, "unit": "nM"}, {"measurement": "Lethal dose", "setting": "male NMRI mice", "result": 155, "unit": "mg/kg"}]}
{"smiles": "Clc1cccc(Cl)c1N=C1NCCN1", "note": "[clonidine]", "values": [{"measurement": "IC50", "setting": "[1]", "result": 17, "unit": "nM"}, {"measurement": "Biphasic effect on intraocular pressure (in words)", "setting": "[2]", "result": "initially induces hypertension of the treated eye, which effect increases with the concentration of the product"}, {"measurement": "ΔP [30 min], variation in intraocular pressure", "setting": "[2]; 0.01% w/v", "result": "+8.0%"}, {"measurement": "ΔP [2 h], variation in intraocular pressure", "setting": "[2]; 0.01% w/v", "result": -8.8, "unit": "%"}, {"measurement": "ΔP [6 h], variation in intraocular pressure", "setting": "[2]; 0.01% w/v", "result": -9.2, "unit": "%"}, {"measurement": "ΔP [30 min], variation in intraocular pressure", "setting": "[2]; 0.1% w/v", "result": "+23.4%"}, {"measurement": "ΔP [2 h], variation in intraocular pressure", "setting": "[2]; 0.1% w/v", "result": "+36.2%"}, {"measurement": "ΔP [3 h], variation in intraocular pressure", "setting": "[2]; 0.1% w/v", "result": "+11.4%"}, {"measurement": "ΔP [30 min], variation in intraocular pressure", "setting": "[2]; 0.5% w/v", "result": "+31.4%"}, {"measurement": "ΔP [2 h], variation in intraocular pressure", "setting": "[2]; 0.5% w/v", "result": "+39.4%"}, {"measurement": "ΔP [3 h], variation in intraocular pressure", "setting": "[2]; 0.5% w/v", "result": "+8.6%"}, {"measurement": "ΔP in the contralateral eye", "setting": "[4]; 0.01%, after 2 hours", "result": -9.5, "unit": "%"}, {"measurement": "ΔP in the contralateral eye", "setting": "[4]; 0.01%, after 6 hours", "result": -9.2, "unit": "%"}, {"measurement": "ΔP in the contralateral eye", "setting": "[4]; 0.1%, after 2 hours", "result": -10.2, "unit": "%"}, {"measurement": "ΔP in the contralateral eye", "setting": "[4]; 0.1%, after 6 hours", "result": "+2.6%"}, {"measurement": "ΔP in the contralateral eye", "setting": "[4]; 0.5%, after 2 hours", "result": -26.3, "unit": "%"}, {"measurement": "ΔP in the contralateral eye", "setting": "[4]; 0.5%, after 6 hours", "result": "+15%"}, {"measurement": "Whitening of the conjunctivae", "setting": "[3]; 0.01%, after 30 minutes", "result": "whitening of the conjunctivae is observed after 30 minutes"}, {"measurement": "Whitening of the conjunctivae", "setting": "[3]; 0.1%, after 1 hour", "result": "this effect is still present after 1 hour"}, {"measurement": "Slowing of the heart rate", "setting": "heart rate; 0.01%, after 3 hours", "result": 10.7, "unit": "%"}, {"measurement": "Slowing of the heart rate", "setting": "heart rate; 0.1%, after only 1 hour", "result": 17.9, "unit": "%"}, {"measurement": "Side-effects (in words)", "setting": "[5]; [6]", "result": "mydriasis, as well as an initial phase of ocular hypertension (biphasic effect)"}, {"measurement": "Change in the pupil diameter / mydriasis (in words)", "setting": "pupil diameter", "result": "causes an important mydriasis of the ipsilateral eye"}]}
{"smiles": "CNCC(O)c1ccc(OC(=O)C(C)(C)C)c(OC(=O)C(C)(C)C)c1", "note": "(stereo not shown) [dipivalylepinephrine]", "values": [{"measurement": "Side-effects (in words)", "setting": "[5]; [6]", "result": "sensations of burning or irritation"}]}
{"smiles": "CC(=O)Nc1nnc(S(N)(=O)=O)s1", "note": "[acetazolamide]", "values": [{"measurement": "Side-effects (in words)", "setting": "[5]; carbonic anhydrase inhibitors, systemic administration", "result": "depression of the central nervous system, weight loss and, mainly, bone marrow hypofunction"}]}
